What was measured:
Assay in all cases: relative viability (nuclei count vs DMSO), 5 days (fraction); higher = more cells survive
FH535 + Trametinib = compound: CC1=C(C=CC(=C1)[N+](=O)[O-])NS(=O)(=O)C2=C(C=CC(=C2)Cl)Cl [FH535] + CC(=O)Nc1cccc(-n2c(=O)n(C3CC3)c(=O)c3c(Nc4ccc(I)cc4F)n(C)c(=O)c(C)c32)c1 [Trametinib] (partner 0.02 µM)
Summary of the method: (§1)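 Lung cancer cell lines were pin-tool dosed in 1536-well plates on the day after seeding, with either a lone drug or a fixed anchor-drug dose plus five library-drug doses (not always all listed) in √10 steps. Nuclei were counted on 4× images after 5 days. Relative viability is the ratio of treated-well to vehicle-well nuclei counts, with each value a median of duplicate plates.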

FH535 + Lapatinib = compound: CC1=C(C=CC(=C1)[N+](=O)[O-])NS(=O)(=O)C2=C(C=CC(=C2)Cl)Cl [FH535] + CS(=O)(=O)CCNCc1ccc(-c2ccc3ncnc(Nc4ccc(OCc5cccc(F)c5)c(Cl)c4)c3c2)o1 [Lapatinib] (partner 2 µM)
Summary of the method: as §1

FH535 + Vorinostat = compound: CC1=C(C=CC(=C1)[N+](=O)[O-])NS(=O)(=O)C2=C(C=CC(=C2)Cl)Cl [FH535] + O=C(CCCCCCC(=O)Nc1ccccc1)NO [Vorinostat] (partner 1 µM)
Summary of the method: as §1

FH535 = compound: CC1=C(C=CC(=C1)[N+](=O)[O-])NS(=O)(=O)C2=C(C=CC(=C2)Cl)Cl [FH535]
Summary of the method: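 Lung cancer cell lines in 1536-well plates were exposed by pinning to five library-drug doses (not always all listed) √10 apart, following an overnight hold at 37 °C. MetaXpress counted Hoechst-stained nuclei from 4× images taken after 5 days without medium change. Viability is the median ratio of treated-well to vehicle-well nuclei across plates. Plates required control CV below 25% and at least one doubling.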

FH535 + AZD7762 = compound: CC1=C(C=CC(=C1)[N+](=O)[O-])NS(=O)(=O)C2=C(C=CC(=C2)Cl)Cl [FH535] + NC(=O)Nc1cc(-c2cccc(F)c2)sc1C(=O)N[C@H]1CCCNC1 [AZD7762] (partner 0.2 µM)
Summary of the method: as §1

| Cell Line | relative viability (FH535 + Trametinib; first compound 0.04 µM) | relative viability (FH535 + Trametinib; first compound 0.1265 µM) | relative viability (FH535 + Trametinib; first compound 0.4 µM) | relative viability (FH535 + Trametinib; first compound 1.265 µM) | relative viability (FH535 + Lapatinib; first compound 0.04 µM) | relative viability (FH535 + Lapatinib; first compound 0.1265 µM) | relative viability (FH535 + Lapatinib; first compound 0.4 µM) | relative viability (FH535 + Lapatinib; first compound 1.265 µM) | relative viability (FH535 + Vorinostat; first compound 0.04 µM) | relative viability (FH535 + Vorinostat; first compound 0.1265 µM) | relative viability (FH535 + Vorinostat; first compound 0.4 µM) | relative viability (FH535 + Vorinostat; first compound 1.265 µM) | relative viability (FH535; 0.04 µM) | relative viability (FH535; 0.1265 µM) | relative viability (FH535; 0.4 µM) | relative viability (FH535; 1.265 µM) | relative viability (FH535 + AZD7762; first compound 0.04 µM) | relative viability (FH535 + AZD7762; first compound 0.1265 µM) | relative viability (FH535 + AZD7762; first compound 0.4 µM) | relative viability (FH535 + AZD7762; first compound 1.265 µM) |
| --- | --- | --- | --- | --- | --- | --- | --- | --- | --- | --- | --- | --- | --- | --- | --- | --- | --- | --- | --- | --- |
| COR-L23 | 0.52 | 0.604 | 0.515 | 0.371 | 0.953 | 0.958 | 0.901 | 0.549 | 0.442 | 0.462 | 0.422 | 0.343 | 0.98 | 1.03 | 0.842 | 0.573 |  |  |  |  |
| NCI-H520 | 0.703 | 0.691 | 0.696 | 0.684 | 0.848 | 0.768 | 0.818 | 0.761 | 0.546 | 0.723 | 0.81 | 0.714 | 0.963 | 1.04 | 0.934 | 0.915 |  |  |  |  |
| ChaGo-K-1 | 0.871 | 0.896 | 0.742 | 0.503 |  |  |  |  | 0.469 | 0.732 | 0.693 | 0.59 | 0.91 | 1.06 | 0.887 | 0.775 | 0.797 | 0.927 | 0.771 | 0.729 |
| NCI-H2009 | 0.306 | 0.316 | 0.251 | 0.24 | 0.82 | 0.859 | 0.853 | 0.656 | 0.732 | 0.762 | 0.693 | 0.602 | 0.964 | 1.01 | 0.92 | 0.701 |  |  |  |  |
| SW 1573 | 0.686 | 0.528 | 0.651 | 0.376 | 1 | 1.19 | 1.18 | 0.98 | 0.614 | 0.666 | 1.04 | 0.66 | 0.908 | 1.01 | 0.899 | 0.836 |  |  |  |  |
| ABC-1 |  |  |  |  | 1.21 | 1.08 | 1.36 | 0.983 | 0.944 | 1 | 0.934 | 0.607 | 1 | 0.858 | 0.812 | 0.774 | 0.706 | 0.664 | 0.756 | 0.549 |
| NCI-H1703 |  |  |  |  | 1.12 | 1.12 | 1.11 | 0.662 |  |  |  |  | 0.958 | 0.848 | 0.929 | 0.768 | 0.127 | 0.136 | 0.109 | 0.132 |
| COR-L 105 | 0.483 | 0.404 | 0.422 | 0.444 | 0.274 | 0.345 | 0.372 | 0.398 | 0.793 | 0.857 | 0.848 | 0.876 | 0.882 | 1.08 | 0.76 | 0.82 |  |  |  |  |
| NCI-H1650 | 0.476 | 0.714 | 0.459 | 0.584 | 0.642 | 0.73 | 0.74 | 0.784 | 0.492 | 0.564 | 0.509 | 0.441 | 0.893 | 0.966 | 0.881 | 0.717 |  |  |  |  |
| UMC-11 | 0.663 | 0.525 | 0.576 | 0.684 | 0.858 | 0.994 | 0.885 | 0.765 | 0.346 | 0.384 | 0.309 | 0.469 | 0.94 | 0.877 | 0.9 | 0.911 |  |  |  |  |
| LCLC-103H | 0.711 | 0.665 | 0.707 | 0.5 |  |  |  |  | 0.569 | 0.781 | 0.694 | 0.666 | 0.919 | 1.03 | 0.901 | 0.753 | 0.737 | 0.734 | 0.744 | 0.67 |
| NCI-H522 | 0.731 | 0.968 | 0.804 | 0.622 |  |  |  |  | 0.855 | 0.858 | 0.731 | 0.78 | 0.875 | 0.894 | 0.856 | 0.825 | 0.717 | 0.947 | 0.688 | 0.864 |
| NCI-H2023 | 0.542 | 0.641 | 0.598 | 0.44 | 0.671 | 0.846 | 0.919 | 0.738 | 0.473 | 0.703 | 0.663 | 0.537 | 0.901 | 1.06 | 0.988 | 0.841 |  |  |  |  |
| NCI-H661 | 0.526 | 0.686 | 0.553 | 0.365 | 0.452 | 0.456 | 0.461 | 0.344 | 0.745 | 0.821 | 0.799 | 0.687 | 1 | 1.01 | 0.955 | 0.637 |  |  |  |  |
| NCI-H2228 | 0.376 | 0.368 | 0.464 | 0.413 | 0.574 | 1.15 | 1.2 | 0.927 | 0.585 | 0.698 | 0.977 | 0.593 | 0.884 | 1.01 | 0.985 | 0.896 |  |  |  |  |
| SK-LU-1 | 0.476 | 0.49 | 0.501 | 0.418 | 0.759 | 0.778 | 0.609 | 0.362 | 0.731 | 0.814 | 0.736 | 0.456 | 1.03 | 1.02 | 0.945 | 0.758 |  |  |  |  |
| IA-LM |  |  |  |  | 0.796 | 0.778 | 0.66 | 0.588 | 0.999 | 1.14 | 0.954 | 0.914 | 0.963 | 0.864 | 0.868 | 0.713 |  |  |  |  |
| SK-MES-1 | 0.503 | 0.541 | 0.577 | 0.552 | 0.493 | 0.448 | 0.422 | 0.412 | 1.1 | 1.19 | 1.02 | 0.918 | 0.986 | 1.01 | 0.963 | 0.776 |  |  |  |  |
| NCI-H1563 |  |  |  |  | 0.737 | 0.959 | 0.898 | 0.864 |  |  |  |  | 0.954 | 0.892 | 0.995 | 0.771 |  |  |  |  |

Source: the supplement of paper PMC10307832
